Test results reported in patent publication US20250352615A1, “COMPOSITIONS AND METHODS FOR THE MODULATION OF PIEZO1 AND TRPV4” (Duke University, priority 2021, published 2025).
Blank lines part the entries; values can stand above or below the molecule they belong to.

Legend:
TRPV4 = target: T1, TRPV4 (Mus musculus, UniProt Q9EPK8); experiment: Calcium imaging of TRPV4-mediated [Ca2+]i in pancreatic acini (agonists, shear stress, Yoda1 sustained phase); assay type: cell-based; conditions: for agonist effect on [Ca2+]i: GSK101 50 nM, arachidonic acid 20 μM, 5′,6′-EET 5 μM
T1 construct: endogenous in cells; host or cells: freshly isolated mouse pancreatic acini (C57BL/6J WT)
T1 sequence (Q9EPK8 whole entry): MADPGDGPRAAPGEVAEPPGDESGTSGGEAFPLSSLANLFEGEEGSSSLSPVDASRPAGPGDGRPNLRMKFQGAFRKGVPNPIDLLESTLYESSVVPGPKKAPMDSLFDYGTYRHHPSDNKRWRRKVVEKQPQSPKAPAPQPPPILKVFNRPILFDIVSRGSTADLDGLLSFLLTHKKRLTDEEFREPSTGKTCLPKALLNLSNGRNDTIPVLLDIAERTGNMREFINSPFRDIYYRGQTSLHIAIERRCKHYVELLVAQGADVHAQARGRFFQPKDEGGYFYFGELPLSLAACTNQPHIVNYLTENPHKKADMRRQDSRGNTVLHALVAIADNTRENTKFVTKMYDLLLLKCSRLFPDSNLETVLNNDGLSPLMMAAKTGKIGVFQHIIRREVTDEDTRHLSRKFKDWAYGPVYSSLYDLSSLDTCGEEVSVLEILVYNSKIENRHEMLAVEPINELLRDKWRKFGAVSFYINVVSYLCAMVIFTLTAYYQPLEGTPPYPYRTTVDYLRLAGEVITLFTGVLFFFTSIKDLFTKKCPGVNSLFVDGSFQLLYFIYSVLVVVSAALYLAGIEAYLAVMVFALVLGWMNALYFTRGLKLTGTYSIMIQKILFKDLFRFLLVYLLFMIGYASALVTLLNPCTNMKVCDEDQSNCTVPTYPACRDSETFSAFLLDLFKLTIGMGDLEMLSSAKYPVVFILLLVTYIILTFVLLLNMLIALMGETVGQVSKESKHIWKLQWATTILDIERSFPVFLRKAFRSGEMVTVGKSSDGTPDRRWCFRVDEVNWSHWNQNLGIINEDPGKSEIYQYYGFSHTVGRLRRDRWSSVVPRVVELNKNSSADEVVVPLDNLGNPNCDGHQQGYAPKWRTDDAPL
Method: (§1) Mouse pancreatic acini were isolated using a standard collagenase digestion protocol. Isolated acini were plated on a thin-layered, Matrigel-coated, glass-bottom, culture plate (MatTek, P35G-0-14-C). Freshly isolated acini were used in each experiment.
Parallel-plate fluid flow chambers (μ-Slide I 0.4 Luer, and μ-Slide I 0.2 Luer from Ibidi GmbH) were used to measure the shear stress-induced changes in intracellular calcium, mitochondrial depolarization, and trypsin activation. The constant flow rate with shear stress (T) was determined as follows: τ=η×[…] φ for μ-Slide I 0.4 Luer and τ=η×330.4 φ for μ-Slide I 0.2 Luer, where η=viscosity of the medium and φ=flow rate (according to the manufacturer's instructions, Ibidi).
(§2) Calcium imaging in pancreatic acini was performed as previously described. The chemicals used in calcium imaging experiments included the following: Yoda1 (Tocris; 5586), GsMTx4 (Abcam; ab141871), 5′,6′-EET (Santa Cruz Biotechnology; sc-221066), AA (Millipore Sigma; A3611), HC067047 (Tocris; 4100), GSK1016790A (Millipore Sigma; G0798), RN1734 (Tocris; 3746), AACOCF3 (Tocris; 1462), YM26734 (Tocris; 2522), GF109203X (Tocris; 0741), and CCK8 (Sigma-Aldrich).

Piezo1 [1] = target: T2, Piezo1 (Mus musculus, UniProt E2JF22); experiment: Calcium imaging of Piezo1-mediated [Ca2+]i in mouse PSCs; assay type: cell-based; conditions: for effect on Yoda1-mediated sustained [Ca2+]i elevation, YM26734 and AACOCF3 together: YM26734 10 μM + AACOCF3 30 μM, Yoda1 25 μM, PSCs from WT mice
T2 construct: endogenous in cells; host or cells: freshly isolated mouse pancreatic acini (WT = Piezo1 fl/fl on a C57BL/6J background)
T2 sequence (E2JF22 whole entry): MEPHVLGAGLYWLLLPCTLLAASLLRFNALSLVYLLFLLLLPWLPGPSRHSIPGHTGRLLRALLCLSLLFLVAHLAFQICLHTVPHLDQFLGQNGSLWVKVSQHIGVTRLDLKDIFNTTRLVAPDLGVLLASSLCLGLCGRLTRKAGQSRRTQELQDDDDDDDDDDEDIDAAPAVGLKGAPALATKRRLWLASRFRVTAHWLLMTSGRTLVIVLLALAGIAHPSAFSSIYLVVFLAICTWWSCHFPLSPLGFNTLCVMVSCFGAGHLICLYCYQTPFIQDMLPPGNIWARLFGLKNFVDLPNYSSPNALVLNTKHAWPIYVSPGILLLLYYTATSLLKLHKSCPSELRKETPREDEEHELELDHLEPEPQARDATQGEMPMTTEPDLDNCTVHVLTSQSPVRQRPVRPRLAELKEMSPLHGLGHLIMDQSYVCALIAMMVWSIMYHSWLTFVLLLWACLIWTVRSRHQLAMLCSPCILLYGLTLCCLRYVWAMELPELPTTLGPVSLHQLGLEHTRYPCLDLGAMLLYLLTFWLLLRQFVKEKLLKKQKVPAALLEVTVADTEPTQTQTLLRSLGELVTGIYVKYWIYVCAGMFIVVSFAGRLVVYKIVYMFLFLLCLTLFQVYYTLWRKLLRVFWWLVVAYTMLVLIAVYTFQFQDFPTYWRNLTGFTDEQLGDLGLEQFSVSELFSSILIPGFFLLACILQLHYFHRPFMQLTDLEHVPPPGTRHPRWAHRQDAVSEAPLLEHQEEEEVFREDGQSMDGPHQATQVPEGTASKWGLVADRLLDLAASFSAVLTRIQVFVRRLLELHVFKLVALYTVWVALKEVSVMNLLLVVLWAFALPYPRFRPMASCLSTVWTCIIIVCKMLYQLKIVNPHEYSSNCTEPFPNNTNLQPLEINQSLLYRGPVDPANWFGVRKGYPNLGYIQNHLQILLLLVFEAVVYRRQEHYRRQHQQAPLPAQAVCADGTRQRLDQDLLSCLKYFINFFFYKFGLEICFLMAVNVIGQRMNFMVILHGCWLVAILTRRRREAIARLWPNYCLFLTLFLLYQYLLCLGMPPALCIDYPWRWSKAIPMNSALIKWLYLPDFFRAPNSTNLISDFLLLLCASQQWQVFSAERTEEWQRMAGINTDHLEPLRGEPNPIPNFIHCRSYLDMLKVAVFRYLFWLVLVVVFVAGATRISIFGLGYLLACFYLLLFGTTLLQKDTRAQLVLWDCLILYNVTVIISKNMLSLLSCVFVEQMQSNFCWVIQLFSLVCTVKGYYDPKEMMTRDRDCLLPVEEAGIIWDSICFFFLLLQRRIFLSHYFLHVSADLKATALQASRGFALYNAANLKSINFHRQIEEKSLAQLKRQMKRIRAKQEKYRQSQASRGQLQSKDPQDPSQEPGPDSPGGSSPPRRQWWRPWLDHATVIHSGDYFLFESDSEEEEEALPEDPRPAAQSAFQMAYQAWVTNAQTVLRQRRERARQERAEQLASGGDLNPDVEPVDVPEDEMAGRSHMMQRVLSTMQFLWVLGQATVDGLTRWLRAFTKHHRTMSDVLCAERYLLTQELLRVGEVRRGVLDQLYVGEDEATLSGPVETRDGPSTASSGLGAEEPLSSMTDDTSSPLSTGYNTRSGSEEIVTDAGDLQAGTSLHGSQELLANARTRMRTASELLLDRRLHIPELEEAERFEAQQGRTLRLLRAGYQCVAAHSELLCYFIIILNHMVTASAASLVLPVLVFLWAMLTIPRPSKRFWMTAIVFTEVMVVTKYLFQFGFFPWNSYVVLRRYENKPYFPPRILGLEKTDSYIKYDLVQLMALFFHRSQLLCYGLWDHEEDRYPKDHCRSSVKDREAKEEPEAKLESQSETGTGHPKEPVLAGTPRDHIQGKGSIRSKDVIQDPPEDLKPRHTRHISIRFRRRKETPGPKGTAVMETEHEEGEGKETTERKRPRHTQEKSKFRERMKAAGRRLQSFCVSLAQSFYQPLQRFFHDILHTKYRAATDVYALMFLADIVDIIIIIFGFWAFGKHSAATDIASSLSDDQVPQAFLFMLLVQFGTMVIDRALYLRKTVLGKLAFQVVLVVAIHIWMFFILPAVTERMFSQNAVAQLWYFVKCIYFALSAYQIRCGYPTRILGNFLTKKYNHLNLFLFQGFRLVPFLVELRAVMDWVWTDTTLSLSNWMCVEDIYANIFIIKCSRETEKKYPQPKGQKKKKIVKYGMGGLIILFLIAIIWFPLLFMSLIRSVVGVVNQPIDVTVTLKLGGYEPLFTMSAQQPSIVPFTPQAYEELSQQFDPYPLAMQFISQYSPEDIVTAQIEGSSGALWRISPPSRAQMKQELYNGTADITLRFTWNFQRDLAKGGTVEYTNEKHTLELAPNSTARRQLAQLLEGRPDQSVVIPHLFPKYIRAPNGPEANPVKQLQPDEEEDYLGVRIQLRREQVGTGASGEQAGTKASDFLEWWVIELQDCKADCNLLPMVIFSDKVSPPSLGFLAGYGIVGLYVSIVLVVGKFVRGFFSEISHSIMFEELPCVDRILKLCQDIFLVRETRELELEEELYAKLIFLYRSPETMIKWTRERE
Method: Mouse and human PSCs were isolated using collagenase digestion. Modified Krebs Henseleit Buffer (KHB) solution (100 mL) was prepared as previously described by Romac et al., Nat. Commun. 9(1):1715 (2018). Pancreatic tissue was digested with 2 mg of collagenase NB 8 (SERVA, catalog 17456) dissolved in 10 mL of modified KHB solution containing 1 mg soybean trypsin inhibitor (SBTI 1-S; Millipore Sigma, catalog T9003) and 20 mg BSA (Thermo Fisher Scientific; BP1600-100). Digestion solution (5 mL) was used to inflate the pancreas. Pancreas with 5 mL of digestion solution was incubated in a shaking water bath for 10 minutes at 37° C. The solution was then discarded. The pancreas tissue was cut into small pieces and digested with fresh 5 mL digestion buffer. Tissue was incubated in a shaking water bath for 40 minutes at 37° C. The cells were then separated from tissue by pipetting up-down with a 10 mL pipette and passed sequentially through a 70 μm and a 40 μm cell strainer. The filtrate was centrifuged at 150×g for 3 minutes at room temperature. The cells were washed with 10 mL Leibovitz's media (Thermo Fisher Scientific, catalog 11415-064), passed through a 20 μm filter, and centrifuged at 80×g for 3 minutes at room temperature. The supernate was removed, and isolated stellate cells were plated on a thin-layered Matrigel-coated glass bottom culture plate (MatTek, P35G-0-14-C). Before plating the cells, Matrigel solution (Corning, catalog 354234) at a ratio of 1.5:100 DMEM/F12 (Thermo Fisher Scientific, catalog 11330-032) was poured onto the culture plate and incubated for 2 hr at 37° C. to form a thin layer of Matrigel coating. Matrigel mixture was removed, and the plate was washed with PBS before cells were plated. Cell culture media, DMEM/F12 with 5% FBS was used for mouse stellate cells. Fresh, human pancreatic tissue was digested with collagenase as described above with modifications. Collagenase (2.5 mg) in 10 mL of modified KHB solution was used for digestion. The digested tissues were filtered through a 100 μm cell strainer. The cells were cultured with DMEM/F12 with 10% FBS in a Matrigel-coated plate. After 24 hr, the cell media was replaced with fresh media to remove unattached and dead cells. After 2 days, cells were immunostained for GFAP and used for experiments. Perinuclear fat droplets were stained with BODIPY 493/503 (4,4-Difluoro-1,3,5,7,8-Pentamethyl-4-Bora-3a,4a-Diaza-s-Indacene; Invitrogen, catalog D3922) to confirm stellate cell quiescence. The cell viability following Yoda1 treatment was analyzed using the Live/Dead cell imaging kit (Thermo Fisher Scientific, catalog R37601). RNAs were isolated using the RiboPure Kit (Invitrogen, catalog AM1924) according to manufacturer's instructions.
Fluid shear stress and mechanical pushing applied to stellate cells were achieved as previously described by Wang et al., J. Clin. Invest. 126(12): 4527-4536 (2016). Parallel-plate fluid flow chambers (μ-Slide I 0.4 Luer, or μ-Slide I 0.2 Luer from Ibidi) were used for fluid shear stress experiments. The fluid shear stress (T) was calculated using the formula: τ=η×[…] φ for μ-Slide I 0.4 Luer and τ=η×330.4 φ for μ-Slide I 0.2 Luer, where r represents viscosity of the medium and φ represents flow rate (according to the manufacturer's instructions, Ibidi). Mechanical pushing was achieved by applying a blunt borosilicate glass pipette once to the cell membrane with a deflection of 2-3 μm for 1 second using a micromanipulator (World Precision Instruments).
Calcium 6-QF (Molecular Devices) dye was used for live-cell calcium imaging as described by Romac et al., Nat. Commun. 9(1):1715 (2018). Cells were imaged in HBSS buffer with 2 mM Ca^2+. Faintly and highly fluorescent loaded cells were excluded from analysis. […]

Piezo1 [2] = target: T2, Piezo1; experiment: Calcium imaging of Yoda1 (Piezo1)-mediated [Ca2+]i in pancreatic acini; assay type: cell-based; conditions: for effect on Yoda1-induced sustained [Ca2+]i elevation, YM26734 and AACOCF3 together: YM26734 10 μM + AACOCF3 30 μM, preincubated 10 minutes; for effect of protein kinase A and C blockers on Yoda1-induced sustained calcium elevation: KT5720 5 μM, GF109203X 20 μM
Method: as §1, §2

pancreatic acini [3] = experiment: Mitochondrial depolarization in pancreatic acini (TMRE); assay type: cell-based, mouse
Method: Live-cell mitochondrial depolarization was analyzed using the mitochondrial labeling dye, TMRE. Isolated acini were plated on a thin-layered, Matrigel-coated, glass-bottom culture plate with DMEM/F12 and 10% FBS media and placed in a CO2 incubator for 1 hr at 37° C. After 1 hr, the acini were incubated with TMRE (200 nM) in the bath buffer containing 140 mM NaCl, 4.7 mM KCl, 2.0 CaCl2, 1 mM MgCl2, 10 mM HEPES, and 10 mM glucose (pH adjusted to 7.4 with NaOH) for 30 minutes. The TMRE dye was washed and replaced with fresh bath buffer. The images were captured with a Zeiss Axio observer Z1 microscope with MetaMorph software (Molecular Devices) at intervals of 600 ms. TMRE was excited at 540-600 nm and emission collected at 585-675 nm. Carbonyl cyanide 4-(trifluoromethoxy) phenylhydrazone (FCCP), which uncouples the oxidative phosphorylation process and depolarizes mitochondria, was used as a positive control. A maximum of 2 mitochondrial puncta were taken per acinar cell.

pancreatic acini [4] = experiment: CCK-induced [Ca2+]i in pancreatic acini; assay type: cell-based, mouse; design: effect on CCK-induced sustained [Ca2+]i elevation: dose or concentration left out as unconfirmed
Method: as §1, §2

pancreatic acini [5] = experiment: Cell death assays of pancreatic acini (LDH release, Live/Dead, live-cell imaging); assay type: cell-based
Method: The viability of pancreatic acini with Yoda1 and CCK treatments was analyzed using the Live/Dead Cell Imaging Kit (Thermo Fisher Scientific, catalog R37601) or the LDH Release Assay Kit (Promega, catalog G1780).

pancreatic acini [6] = experiment: Trypsinogen activation in pancreatic acini (BZiPAR); assay type: cell-based, mouse
Method: To visualize Piezo1-induced trypsinogen activation, acini were loaded with active trypsin enzyme substrate BZiPAR (10 μM). Na-HEPES buffer with 2 mM Ca^2+ was used during imaging. A Zeiss Axio observer Z1 with a high-sensitivity EMCCD camera with a ×40/0.75 EC-Plan-NeoFluar DIC objective was used to capture the Z-stack images with stack thickness of 3 μm at an interval of 12 seconds. The BZiPAR fluorescent wavelength Ex/Em was 498/521 nm. BZiPAR was excited at 470-510 nm and emission collected at 495-550 nm. The captured images were analyzed with MetaMorph software (Molecular Devices).

Molecule: CCCCC/C=C\C/C=C\C/C=C\CC1OC1CCCC(=O)O (stereo not drawn) [5′,6′-EET, 5′,6′-epoxyeicosatrienoic acid]
- agonist effect on [Ca2+]i (TRPV4): induced significant increases in [Ca^2+]i

Molecule: CCCCC/C=C\C/C=C\C/C=C\C/C=C\CCCC(=O)O [AA, arachidonic acid]
- agonist effect on [Ca2+]i (TRPV4): induced significant increases in [Ca^2+]i

Molecule: CCCCC/C=C\C/C=C\C/C=C\C/C=C\CCCC(=O)C(F)(F)F [AACOCF3]
- effect on Yoda1-mediated sustained [Ca2+]i elevation, YM26734 and AACOCF3 together (Piezo1 [1]): significantly inhibited the Yoda1-mediated sustained elevation in [Ca^2+]i
- effect on Yoda1-induced sustained [Ca2+]i elevation, YM26734 and AACOCF3 together (Piezo1 [2]; Yoda1 25 μM): blocked the Yoda1-induced sustained [Ca^2+]i elevation

Molecule: CC(=O)OCOC(=O)CN(CC(=O)OCOC(C)=O)c1ccccc1OCCOc1ccccc1N(CC(=O)OCOC(C)=O)CC(=O)OCOC(C)=O [BAPTA-AM]
- effect on Yoda1-induced mitochondrial depolarization (pancreatic acini [3]; BAPTA-AM 20 μM preincubated 20 minutes): protected from Yoda1-induced mitochondrial depolarization
- effect on Yoda1-induced sustained Ca2+ rise (Piezo1 [2]; BAPTA-AM 20 μM preincubated 30 minutes, Yoda1 50 μM): abolished the sustained Ca^2+ rise
- effect on CCK-induced [Ca2+]i (pancreatic acini [4]; BAPTA-AM 20 μM preincubated 30 minutes, CCK 1 nM): completely eliminated the effect of CCK on [Ca^2+]i
- effect on Yoda1-induced LDH release (pancreatic acini [5]; BAPTA-AM preincubated 30 minutes, Yoda1 50 μM): protected pancreatic acini from Yoda1-induced LDH release

Molecule: Cc1cccc(F)c1C(=O)Nc1cnc(-c2cc3c(cc2Cl)OC(F)(F)O3)cn1 [CM4620]
- effect on Yoda1-induced [Ca2+]i rise (Piezo1 [2]; CM4620 5 μM preincubated 1 hr, Yoda1 25 μM): did not alter the rise in [Ca^2+]i following Yoda1 stimulation
- effect on CCK-induced sustained [Ca2+]i elevation (pancreatic acini [4]; CM4620 preincubated 1 hr, CCK): blocked the sustained elevation in [Ca^2+]i produced by CCK
- completeness of block of CCK-induced [Ca2+]i rise (pancreatic acini [4]; CM4620 preincubated 1 hr, either concentration of CCK, residual calcium wave): did not completely block the [Ca^2+]i rise

Molecule: CN(C)CCCn1cc(C2=C(c3c[nH]c4ccccc34)C(=O)NC2=O)c2ccccc21 [GF109203X]
- effect of protein kinase A and C blockers on Yoda1-induced sustained calcium elevation (Piezo1 [2]): did not significantly affect the Yoda1-induced sustained calcium elevation

Molecule: CCCCCCOC(=O)[C@]1(O)C[C@@H]2O[C@@]1(C)n1c3ccccc3c3c4c(c5c6ccccc6n2c5c31)C(=O)NC4 [KT5720]
- effect of protein kinase A and C blockers on Yoda1-induced sustained calcium elevation (Piezo1 [2]): did not significantly affect the Yoda1-induced sustained calcium elevation

- effect on GSK101 (50 nM)-induced [Ca2+]i increase (TRPV4; HC067 100 nM, RN1734 30 μM): inhibited
Molecule: CC(C)NCCN(C(C)C)S(=O)(=O)c1ccc(Cl)cc1Cl [RN1734]

Molecule: CCCCCCCCCCCC(=O)c1c(O)c(C(=O)CCCCCCCCCCC)c(O)c(C2CC(c3ccc(O)cc3)Oc3cc(O)ccc32)c1O (stereo not drawn) [YM26734]
- effect on Yoda1-mediated sustained [Ca2+]i elevation, YM26734 and AACOCF3 together (Piezo1 [1]): significantly inhibited the Yoda1-mediated sustained elevation in [Ca^2+]i
- effect on Yoda1-induced sustained [Ca2+]i elevation, YM26734 and AACOCF3 together (Piezo1 [2]; Yoda1 25 μM): blocked the Yoda1-induced sustained [Ca^2+]i elevation
- effect of the secretory PLA2 inhibitor alone on Yoda1-induced sustained [Ca2+]i elevation (Piezo1 [2]; YM26734 10 μM, Yoda1 25 μM): substantial and capable of blocking the sustained [Ca^2+]i elevation

Molecule: C[C@H](CCC(=O)O)C[C@H](C)C[C@H](C)C(=O)/C=C(\O)[C@H](C)C[C@H](C)C/C=C/[C@@H](C)[C@@H](O)[C@@H](C)[C@@H](O)C[C@@H]1CC[C@@](C)([C@H]2CC[C@@](C)([C@@H](C)O)O2)O1 [ionomycin]
- [Ca2+]i response to ionomycin after Yoda1 (25 μM) treatment (Piezo1 [1]; ionomycin 1 μM, mouse PSCs): All cells responded

Molecule: CCK: secretagogue that stimulates pancreatic enzyme secretion by increasing [Ca2+]i
- time to mitochondrial depolarization after application (pancreatic acini [3]; Yoda1 50 μM, CCK 10 nM): > 10 min
- CCK-mediated trypsin activation, WT vs Piezo1aci-KO acini (pancreatic acini [6]; CCK 10 nM): similar
- trypsin activation (BZiPAR fluorescence) (pancreatic acini [6]; Yoda1 50 μM or CCK 10 nM): activated trypsin in pancreatic acini over time
- time to trypsin activation after application (pancreatic acini [6]; Yoda1 50 μM, CCK 10 nM): > 20 min
- cell damage (LDH release) in WT vs Piezo1aci-KO acini (pancreatic acini [5]; CCK 1 nM): produced comparable cell damage
- acinar cell death, both Yoda1 and CCK vs individual application (pancreatic acini [5]; Yoda1 50 μM + CCK 1 nM, WT acini): acinar cell death was greater
